Laboratory results: patent US20240050513A1, “COMPOSITION FOR PREVENTING, AMELIORATING, OR TREATING DISEASE CAUSED BY PROTEIN NITRATION […] WITH TERMINAL TYROSINE AS EFFECTIVE COMPONENT” (INDUSTRY-ACADEMIC COOPERATION FOUNDATION GYEONGSANG …, priority 2021, published 2024)

Legend:
[1] = tested on: kainic acid-treated ICR mice; assay: Seizure level in kainic acid epileptic seizure model; assay type: in vivo
Description: Four-week-old male ICR mice were fed with normal diet, tyrosine (L-Tyr), or tyrosine-containing peptide (3xYQ, 1xYW, or 3xYW) for one week. […] Kainic acid (KA) was dissolved in saline by heating in a water bath, resulting in a 4.5 mg/ml KA solution. The resulting KA solution was then intraperitoneally injected at a dose of 36 mg/kg, and seizure level and symptoms were recorded for 2 hours.

[2] = tested on: glutamine synthetase (GS); assay: GS activity and GS tyrosine nitration in PFC, chronic immobilization stress model; assay type: in vivo, C57BL/6 mice; conditions: stress group
Description: Using the prefrontal cortex (PFC) lysate samples from mice obtained after the completion of chronic immobilization stress, GS activity and GS expression level were measured by following the method described above.
Furthermore, the level of tyrosine nitration within GS was measured by using immunoprecipitation (IP)-WB. The immunoprecipitation analysis of tyrosine-nitrated GS was performed using an anti-nitrotyrosine antibody (ab61392, Abcam) and Protein A/G PLUS-Agarose (Santa Cruz) according to the manufacturer's protocol.

[3] = tested on: chronic immobilization stress C57BL/6 mice; conditions: stress group, peptide diet vs normal diet
Description: A total of 28 male C57BL/6 mice at 7 weeks of age were divided into two groups: a control group (CTL) and a stress group (STR). The stress group was subjected to chronic immobilization stress for 15 days. Specifically, each mouse in the stress group was individually placed in a restrainer for 2 hours daily from […] to induce chronic immobilization stress. The control group (CTL) and stress group (STR) were further classified based on their diets. […] After the completion of the 15-day chronic immobilization stress, the mice were subjected to a sucrose preference test (SPT). Blood samples and prefrontal cortex (PFC) tissues were collected from the mice for subsequent test.
For the analysis of anti-depressive effect, blood and PFC tissues were collected from mice that underwent chronic immobilization stress. The blood collected from mice was centrifuged at 1,000×g for 10 minutes at 4° C. to separate the plasma, and the supernatant was collected and diluted 1/20 with PBS to prepare a sample. The corticosterone concentration in the plasma was then measured using the Corticosterone EIA kit (Cayman) by following the manufacturer's instructions.
In addition, the plasma diluted with PBS at a ⅓ ratio and the PFC tissue lysate (50 μg) were prepared. The ROS/RNS (reactive oxygen species/reactive nitrogen species) level in the plasma and PFC tissues was measured using the ROS/RNS assay kit (Cell Biolabs) according to the manufacturer's instructions.
In addition, the depression was evaluated by measuring the sucrose preference of mice that had undergone 15 days of chronic immobilization stress. The sucrose preference test was conducted over a total of 4 days. Equal amounts of 0.1 M sucrose solution and water were provided in identical bottles of the same size and shape. On the first day, mice were given access to 0.1 M sucrose solution and water for 24 hours. On the second day, the positions of the sucrose solution and water bottles were switched, and mice were given access for 24 hours. On the third day, no sucrose solution or water was provided. On the fourth day, mice were again given access to equal amounts of 0.1 M sucrose solution and water for 3 hours, the positions were then switched, and access was provided for another 3 hours. The amount of sucrose solution and water consumed during the 6-hour period on the fourth day was measured, and the sucrose preference (%) was calculated according to the following formula.
Sucrose preference (%)=Sucrose intake amount/(Water intake amount+Sucrose intake amount)×100

[4] = tested on: chronic immobilization stress C57BL/6 mice; assay: Cognitive function (ORT/OLT) in chronic immobilization stress model; assay type: in vivo; conditions: stress group, peptide-supplemented diet vs normal diet
Description: To analyze the long-term memory capacity of animals following the peptide diet of the present invention, both the object recognition test (ORT) and object location recognition test (OLT) were conducted (FIG. 1). The tests consisted of three phases: habituation, familiarization, and test. During the habituation phase, the animals were acclimated to the testing apparatus for 10 minutes per day over two days. On the third day at the familiarization phase, the animals were allowed to explore two identical objects for 10 minutes. Subsequently, on the fourth day at the test phase, one of the objects was replaced with a novel object, and the animals were allowed to explore for 10 minutes, with result recorded during the initial 5 minutes was used as test data. The object recognition test (ORT) index was calculated using the following formula.
Discrimination index=(N−F)/(N+F) • N: Time spent for exploring new object • F: Time spent for exploring familiar object
After 24 hours of performing the ORT, the location of the familiar object was changed, and the animals were allowed to explore for 5 minutes. During the total exploration time, the ratio of time spent exploring the object with a changed location was calculated to determine the object location recognition test (OLT) index.
A total of 28 seven-week-old male C57BL/6 mice were divided into two groups: a control group and a stress group. […]

[5] = tested on: glutamine synthetase (GS); assay: Hippocampal glutamine synthetase activity in kainic acid epileptic seizure model; conditions: survived mice after kainic acid
Description: Kainic acid (KA) was dissolved in saline by heating in a water bath, resulting in a 4.5 mg/ml KA solution. The resulting KA solution was then intraperitoneally injected at a dose of 36 mg/kg, and seizure level and symptoms were recorded for 2 hours. The brain tissues (prefrontal cortex and hippocampus) of the mice that survived 16 hours or 5 days after the KA injection were collected.
To a 96-well plate, 2 μl of hippocampal homogenate was added, and 50 μl of 50 mM imidazole-HCl buffer (pH 6.8) were added to adjust the volume to 50 μl. Then, 50 μl of GS assay buffer (50 mM imidazole-HCl, pH 6.8, 25 mM L-glutamine, 12.5 mM hydroxylamine, 12.5 mM sodium arsenate, 1 mM MnCl2, and 0.08 mM ADP) were added and the reaction was allowed to occur at 37° C. for approximately 40 minutes. […] To terminate the reaction, 100 μl of stop solution (90 mM FeCl3, 1.8 N HCl, and 1.45% w/v trichloroacetic acid) were added to both the samples and the standard substance, and the absorbance was measured at 560 nm. The GS activity in each sample was determined by comparing it with the standard curve. GS activity was expressed as the generation amount of γ-glutamylhydroxamate, which is produced as a final product, and described in unit of μM/min/μg protein.

N[C@@H](Cc1ccc(O)cc1)C(=O)O [L-Tyr, L-tyrosine, reference compound]
seizure level ([1]; 5xL-Tyr diet vs normal diet): statistically significantly decreased

glutamine-tyrosine [QY]
tyrosine nitration level of GS ([2]; IP-WB, peptide diet vs normal diet): statistically significant decrease | GS activity ([2]; peptide diet (330 mg/kg) vs normal diet): statistically significant increase | ROS/RNS level in PFC tissue [3]: decreased | sucrose preference [3]: increased

tyrosine-tryptophan [YW]
cognitive function [4]: enhanced cognitive function | seizure level ([1]; 1xYW diet one week vs normal diet): statistically significantly decreased | activity of the glutamine synthetase in the hippocampal tissue ([5]; 1xYW): increased | activity of the glutamine synthetase in the hippocampal tissue ([5]; 3xYW): increased
